What all share (format): physicochemical
Series [1] in a line: Cyclic voltammetry (three-electrode cell, glassy carbon working electrode, Ag/AgCl reference). As to conditions: for redox stability (irreversible side reactions): 5 mV/s, cycling 0 V up to about 1.2 V; for oxidation potential: glassy carbon; for observed oxidation potential: 1 mM in 0.5 M sulfuric acid, scan rate 20 mV/s, 0 V to 1 V. The procedure: Cyclic voltammetry (CV) measurements: CV experiments were performed in custom-made three-electrode electrochemical cells with 3 mm diameter glassy carbon working electrode, a Ag/AgCl reference electrode and a platinum wire counter electrode using 1470E SOLARTRON ANALYTICAL INSTRUMENT.

Series [2] in a line: Diffusion coefficient measurement using Randle-Sevcik equation. As to conditions: scan rates 10-100 mV/s. The procedure: Diffusion coefficient measurement: Diffusion coefficients were measured using Randle-Sevcik equation as shown below. In this equation, ip is the peak current, n represents the number of electrons transferred in the redox reaction, F is the Faraday's constant, A is the electrode area, c represents the concentration, v is the scan rate, D is the diffusion coefficient, R is the gas constant and T is the absolute temperature.

A short description of series [3]: Galvanostatic bulk electrolysis cycling. As to conditions: 1 mM in 3.0 M sulfuric acid, constant current 2.68 mA, cut-off 0.25 V to 0.85 V. How it is done:
Galvanostatic bulk electrolysis: Galvanostatic cycling test was performed with a three-electrode bulk electrolysis electrochemical cell using 1470E SOLARTRON ANALYTICAL INSTRUMENT. Reticulated vitreous carbon was used as the working electrode, Ag/AgCl electrode was used as the reference electrode and coiled platinum enclosed in glass tubes with porous ceramic frit was used as the counter electrode.

Series [4] can be described thus: Solubility in aqueous acid. Particulars: aqueous acid / acidic conditions.
Setting [5] is: 5 mM in 1.0 M sulfuric acid, scan rate 5 mV/s.

“Also recorded” adds a separate entry of the source.

As to `CC1(C)CC(O)CC(C)(C)N1[O]` [4-OH-TEMPO, reference compound], the “redox stability (irreversible side reactions)” value in series [1] (5 mM in 1.0 M sulfuric acid) is given as “irreversible reduction”. The oxidation potential in series [1] (setting [5]) is 0.83 V (vs. AG/AgCl).

With `NCCc1ccc(O)c(O)c1` [dopamine, 3,4-dihydroxyphenethylamine, reference compound], the diffusion coefficient in series [2] (50 mM in 0.5 M sulfuric acid) was 2.43×10^−6 cm^2/s.

As to `CN(C)c1ccc(O)cc1` [DMAP, 4-dimethylaminophenol], the observed oxidation potential in series [1] is on record as 0.56 V (vs. AG/AgCl). In series [2] (1 mM in 0.5 M sulfuric acid), the diffusion coefficient was 3.9×10^−6 cm^2/s. Further, in series [3], the “capacity and capacity retention” value is recorded as “very similar”.

`CC1(C)CC(N)CC(C)(C)N1[O]` [4-NH2-TEMPO, 4-amino-2,2,6,6-tetramethylpiperidyl-1-oxyl]: in series [4], the solubility result is listed as “higher solubility than 4-OH-TEMPO”. Also, the “redox stability (irreversible side reactions)” value in series [1] (5 mM in 1.0 M sulfuric acid) is on record as “irreversible reduction; also recorded: greater redox stability (i.e., less severe irreversible side reactions) than 4-OH-TEMPO”. Further, in series [1] (setting [5]), the “oxidation potential higher than 4-OH-TEMPO” value was 0.09 V and the oxidation potential is reported as 0.92 V (vs. AG/AgCl).

For `CN(C)c1cc(S(=O)(=O)O)c(O)c(S(=O)(=O)O)c1` [DADPS, 5-(dimethylamino)-2-hydroxybenzene-1,3-disulfonic acid], the observed oxidation potential in series [1] is recorded as 0.66 V (vs. AG/AgCl). Moreover, in series [3], the “capacity and capacity retention” value is “very similar”; the “potential in bulk electrolysis relative to unsubstituted aminophenol (DMAP)” value is “increased potential”.
